Data set [1] relates to HepG2 cells. As to the kind of experiment: Seahorse XFe96 cellular respiration assay (oxygen consumption rate). Type of data set: cell-based. To be noted: 24 hour incubation. As to the method: To assess the potential effect of the five test articles on mitochondrial function, cellular respiration assays using a Seahorse XFe96 Flux Analyzer were conducted by Cyprotex (Macclesfield, UK) and overseen by the authors. HepG2 cells were incubated with each test article for 1 or 24 hours and tested for an effect on cellular respiration by measuring the oxygen consumption rate (OCR). Each study was conducted in triplicate. Importantly, the 1 hour culture was conducted in the absence of serum (i.e. no serum protein binding) as is standard for the Seahorse Analyzer assay conditions.

Data set [2] has as its system HepG2 cells. As to the kind of experiment: ROS formation by DHE fluorescence (high-content imaging). Type of data set: cell-based. To be noted: 24 hour incubation. Here is the method: To assess the potential for lixivaptan and its metabolites to induce oxidative stress, assays to measure formation of reactive oxygen species (ROS) were conducted by Cyprotex and overseen by the authors. HepG2 cells were cultured in triplicate in the presence of each test article for 1 or 24 hours; the range of concentrations used for each test article is listed in Table B1. ROS formation was assayed by DHE fluorescence. Two independent studies in triplicate were conducted on HepG2 cells.

For data set [3], the target named is T1, human BSEP (Homo sapiens, UniProt O95342).
T1 construct: host or cells: HEK-293 cell membrane vesicles
T1 sequence (O95342 whole entry): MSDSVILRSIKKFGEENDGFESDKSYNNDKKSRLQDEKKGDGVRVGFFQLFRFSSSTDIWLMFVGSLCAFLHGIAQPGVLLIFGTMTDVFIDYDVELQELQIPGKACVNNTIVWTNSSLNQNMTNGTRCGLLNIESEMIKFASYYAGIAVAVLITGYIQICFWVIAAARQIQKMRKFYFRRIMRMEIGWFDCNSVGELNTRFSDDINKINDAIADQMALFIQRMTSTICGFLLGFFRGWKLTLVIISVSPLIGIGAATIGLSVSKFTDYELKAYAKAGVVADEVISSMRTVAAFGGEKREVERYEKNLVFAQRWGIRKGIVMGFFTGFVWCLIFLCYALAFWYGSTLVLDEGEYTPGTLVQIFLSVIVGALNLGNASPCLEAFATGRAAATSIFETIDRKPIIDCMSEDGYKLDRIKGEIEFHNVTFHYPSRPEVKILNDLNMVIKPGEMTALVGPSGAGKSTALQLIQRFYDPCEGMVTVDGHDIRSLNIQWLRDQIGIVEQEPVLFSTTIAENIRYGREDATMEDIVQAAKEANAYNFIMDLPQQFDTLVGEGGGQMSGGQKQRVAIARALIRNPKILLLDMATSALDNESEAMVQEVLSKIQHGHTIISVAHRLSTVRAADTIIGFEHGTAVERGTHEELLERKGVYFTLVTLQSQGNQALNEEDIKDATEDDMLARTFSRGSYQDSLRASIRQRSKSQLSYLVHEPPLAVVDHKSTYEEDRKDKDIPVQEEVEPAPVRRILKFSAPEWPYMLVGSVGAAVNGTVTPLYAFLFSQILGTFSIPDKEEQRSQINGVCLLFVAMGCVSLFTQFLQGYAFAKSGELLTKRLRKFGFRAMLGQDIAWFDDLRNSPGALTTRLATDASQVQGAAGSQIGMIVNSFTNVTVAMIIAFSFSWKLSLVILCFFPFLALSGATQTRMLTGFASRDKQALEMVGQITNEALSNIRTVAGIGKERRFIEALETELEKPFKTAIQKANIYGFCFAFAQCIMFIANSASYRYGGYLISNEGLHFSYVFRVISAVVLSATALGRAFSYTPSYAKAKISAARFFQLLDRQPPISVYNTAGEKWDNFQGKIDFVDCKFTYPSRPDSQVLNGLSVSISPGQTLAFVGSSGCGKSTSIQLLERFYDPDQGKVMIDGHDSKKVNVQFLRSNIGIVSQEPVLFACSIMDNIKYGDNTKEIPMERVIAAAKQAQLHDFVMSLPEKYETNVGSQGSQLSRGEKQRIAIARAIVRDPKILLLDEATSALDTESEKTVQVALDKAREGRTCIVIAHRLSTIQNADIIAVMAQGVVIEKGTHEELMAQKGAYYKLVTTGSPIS
Put plainly: BSEP vesicular transport inhibition assay (taurocholate, HEK-293 cell membrane vesicles). It is filed as biochemical. As to the method:
(§1) The functional impact of lixivaptan, its three metabolites and tolvaptan on the human ABC (efflux) transporters BSEP and MRP3 and MRP4 was assessed for this project using in vitro vesicular transport inhibition assays. The inhibition of the human SLC (uptake) transporter NTCP was assessed using CHO cells stably expressing human NTCP. The concentration ranges used for the five test articles was determined based on the solubility of each compound in the assay solution. All transporter inhibition assays were conducted in triplicate by Solvo Biotechnology (Szeged, Hungary).
For the simulation of bile acid transporter inhibition by lixivaptan in DILIsym, parameter values were selected for BSEP canalicular transport, basolateral transport (encompassing both MRP3 and MRP4), and NTCP transport. The parameter values for each include the inhibition constant, defined as the IC50 or Ki value, and the inhibition type, defined as competitive, non-competitive, or mixed inhibition.
In vesicular transport inhibition assays, lixivaptan and its metabolites each inhibited BSEP-mediated probe substrate accumulation (Figure B1) and MRP4-mediated probe substrate accumulation (Figure B2) dose-dependently.
Figure B1. […] See Appendix A for more details.

The conditions of data set [4]: cited from earlier work.
Data set [5] concerns RNS/ROS formation. Put plainly: RNS/ROS production parameter from DILIsym simulation of ROS data. The conditions noted are these: calculated from 24 h HepG2 ROS data; higher = higher risk. As to the method:
To define the DILIsym parameter values for lixivaptan- and WAY-138451-mediated oxidative stress, the 24 h in vitro data were simulated within DILIsym (Fig. 5). The intracellular concentration of each compound was measured by LC/MS/MS analysis. For lixivaptan, the measured intracellular concentration at each dose was used to parameterize the model. For WAY-138451, however, the LC/MS/MS data was inconsistent at low doses due to lower limit of detection issues. Thus, the mean measured cell-to-nominal-media ratio (0.672) was used to estimate intracellular concentrations at each dose. Reproduction of lixivaptan- and WAY-138451-mediated induction of oxidative stress defined the relationship between liver compound concentration and ROS formation with the reactive nitrogen/oxygen species (RNS/ROS) production rate constants listed in Table 2. […]
To define the DILIsym parameter values for lixivaptan- and WAY-138451-mediated oxidative stress, the 24 hour in vitro data were simulated within DILIsym (Figure B12). The intracellular concentration of each compound was measured by LC/MS/MS analysis. For lixivaptan, the measured intracellular concentration at each dose was used to parameterize the model. […] Thus, the mean measured cell-to-nominal-media ratio (0.672) was used to estimate intracellular concentrations at each dose. […]

The target in data set [6] is T2, human NTCP (Homo sapiens, UniProt Q14973).
T2 sequence (Q14973 1-349): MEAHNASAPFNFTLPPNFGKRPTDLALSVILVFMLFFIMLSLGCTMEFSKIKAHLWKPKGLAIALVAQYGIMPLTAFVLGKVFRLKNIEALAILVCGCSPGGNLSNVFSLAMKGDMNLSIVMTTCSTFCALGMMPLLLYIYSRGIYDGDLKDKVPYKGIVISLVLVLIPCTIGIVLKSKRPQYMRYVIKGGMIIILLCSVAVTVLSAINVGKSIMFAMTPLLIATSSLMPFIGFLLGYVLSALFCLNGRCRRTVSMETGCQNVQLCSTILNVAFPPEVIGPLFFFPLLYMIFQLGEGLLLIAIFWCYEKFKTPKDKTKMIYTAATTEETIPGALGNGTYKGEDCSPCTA
As to the kind of experiment: NTCP inhibition in CHO cells stably expressing human NTCP (taurocholate). Type of data set: cell-based. Here is the method: as §1
Figure B4. […] See Appendix A for more details.

Data set [7] has as its system mitochondrial electron transport chain. As to the kind of experiment: ETC inhibition parameter from MITOsym simulation of OCR data, translated to DILIsym. To be noted: calculated from 24 h HepG2 OCR data and measured intracellular concentrations; lower = higher risk. The source says: The parameters calculated in this manner were then translated to DILIsym parameters using a conversion factor based on the relative activity of rotenone in the in vitro vs. in vivo environment (7).

[8] abbreviates: End Stage Renal Disease patients, ref personal communication, proprietary data not shown.

Results on one compound are retold here after publication PMC6944674, “Comparison of the Hepatotoxic Potential of Two Treatments for Autosomal-Dominant Polycystic Kidney DiseaseUsing Quantitative Systems Toxicology Modeling” (Pharmaceutical Research, 2020).

Take `Cc1ccc(F)cc1C(=O)Nc1ccc(C(=O)N2Cc3cccn3Cc3ccccc32)c(Cl)c1` [Lixivaptan, lixivaptan]: in data set [1], the “effect on HepG2 oxygen consumption rate (mitochondrial respiration)” value is reported as “reduce the HepG2 oxygen consumption rate (OCR) in a dose-dependent manner”. Besides, in data set [2], the “induction of oxidative stress in HepG2 cells” value is “evidence for induction of oxidative stress”. Further, the half-inhibitory concentration (IC50) in data set [3] (read-out: BSEP inhibition constant (IC50)) was 15 µM. For the same compound, in data set [3] (vesicular transport inhibition assay), the “inhibition of BSEP-mediated probe substrate accumulation” value is reported as “inhibited”. The “time to steady-state concentration” value in data set [4] (100 mg BID, clinical, ref proprietary data not shown) is listed as 6 days. In addition, the “recovery in single-dose mass balance study” value in data set [4] (100 mg single dose, after 7 days, ref clinical study 0892A1-109-US) is recorded as 84%. In data set [4] (setting [8]), the “decrease of exposure (AUC) in renal failure patients vs subjects with normal renal function” value is listed as “approximately 30%” and the “decrease of peak concentration (Cmax) in renal failure patients vs subjects with normal renal function” value is “approximately 30%”. The Cmax in data set [4] (after 7 days of 100 mg BID, ref clinical study CK-LX1403 (data not shown)) is 2000 nM. Moreover, in data set [5], the “RNS/ROS production rate constant (DILIsym parameter)” value was 0.151 M⁻¹ s⁻¹. For the same compound, the “inhibition of NTCP-mediated probe substrate accumulation” value in data set [6] (CHO cells) is reported as “observed”. For the same compound, in data set [6] (read-out: NTCP inhibition constant (IC50)), the IC50 turned out to be 19 µM. In addition, the “Coefficient for ETC inhibition (DILIsym parameter)” value in data set [7] is 535 µM.

The term IC50 denotes the concentration at which inhibition is half-maximal. By Cmax is commonly meant the maximum level reached in the sampled fluid or tissue.
